This is an account of results in paper PMC6389950, “Small Peptide Ligands for Targeting EGFR in Triple Negative Breast Cancer Cells” (Scientific Reports, 2019).

Holding throughout (assay): Peptide array-whole cell binding assay
Assay type in all cases: cell-based

For assay [1], the system named is MDA-MB-436. As to conditions: peptide conjugated to cellulose membrane (amino-PEG500), no free C-terminus; cells 75 × 10^3 cells/mL, 37 °C, 4 h; CyQUANT fluorescence relative to peptide 1; spots in duplicate. An excerpt: (§1) Peptide array on the cellulose membrane was used to evaluate the binding of each peptide to different cell lines. The amino functionalized cellulose membrane provided by Intavis is acid hardened providing high stability at pH range from 1–14, permitting its use in acidic or basic conditions while maintaining membrane integrity. The PEG linker on membrane surface functions as a hydrophilic spacer between the peptide and the solid surface (membrane) reducing background signal. Cell lines were carefully selected for screening peptides as our goal here is to screen peptides with high binding/uptake by the TNBC cells. […] EGFR is overexpressed by a number of TNBC cells such as MDA-MB-468 (obtained from primary tumor source) and MDA-MB-231 (from metastasis cancer tissue)[13],[14]. While other TNBC cells like MDA-MB-436 (obtained from metastasis cancer tissue) are known to express low levels of EGFR. Non-tumorigenic epithelial MCF10A and MCF12A cells derived from the breast tissue also express low levels of EGFR[14],[34]. We selected two TNBC cell lines with relatively high expression of EGFR expression (MDA-MB-468/231) and a TNBC cell line with low level of EGFR expression (MDA-MB-436) for the peptide array screening experiments. In addition, non- tumorigenic cell line, MCF-10A was used for comparison. These four cell lines were allowed to bind the membrane by seeding the cells on the membrane and the bound cells were labeled with a fluorescent dye CyQUANT.
(§2) For the binding assay, the peptide array was incubated with the cells in sequential steps as described previously. Briefly peptide array membrane was dipped in ethanol for 30 s to remove any precipitation on it, followed by dipping in sterile PBS (pH 7.4) for another 30 min. The cells (75 × 10^3 cells/mL) were seeded directly on the membrane in a sterile plate and incubated at 37 °C for 4 h. The unbound cells were washed out with sterile PBS (pH 7.4). Thereafter the membrane was placed in a sealed bag and transferred to −80 °C freezer for 2 h. Subsequently it was defrosted at room temperature and treated with CyQUANT solution. The CyQUANT concentration was optimized based on the manufacturer’s protocol and preliminary experiments. Membrane was incubated at 37 °C for 30 min with the dye. After washing with sterile PBS and air drying using blow dryer, the membrane was scanned using Bio-rad chemidoc imager with image lab software. The settings were adjusted based on the excitation (465 nm) and emission (535 nm) wavelengths of CyQUANT dye. Epi Blue was selected for the light source (455–485 nm) and filter number 4 (blue filter, 518–546 nm) was employed. The fluorescence intensity of cancer cells read using chemidoc imager was normalized using the non-cancer cell fluorescence intensity. Eventually relative fluorescence was assessed to select peptides with high affinity to cancer cells and low or minimal binding to normal cells.

In assay [2] the test system is MDA-MB-468. As to conditions: peptide conjugated to cellulose membrane (amino-PEG500), no free C-terminus; cells 75 × 10^3 cells/mL, 37 °C, 4 h; CyQUANT fluorescence relative to peptide 1; spots in duplicate.
Excerpt: as §1, §2

The test system of assay [3] is MCF-10A. As to conditions: non-tumorigenic cells; peptide conjugated to cellulose membrane (amino-PEG500); cells 75 × 10^3 cells/mL, 37 °C, 4 h; CyQUANT fluorescence relative to peptide 1; spots in duplicate.
Excerpt: as §1, §2

Assay [4] has as its system MDA-MB-231. As to conditions: peptide conjugated to cellulose membrane (amino-PEG500), no free C-terminus; cells 75 × 10^3 cells/mL, 37 °C, 4 h; CyQUANT fluorescence relative to peptide 1; spots in duplicate.
Excerpt: as §1, §2

On to AHWYGYTPQNVI [Peptide 6], for which the “Relative Cell Adhesion MDA-MB-436” value in assay [1] amounted to 1.0. In assay [2], the “Relative Cell Adhesion MDA-MB-468” value stood at 1.2. In addition, the “Relative Cell Adhesion MCF-10A” value in assay [3] worked out at 1.1. Further, the “Relative Cell Adhesion MDA-MB-231” value in assay [4] is given as 1.3.

As to FHWYGYTPQNVI [Peptide 28], the “Relative Cell Adhesion MDA-MB-436” value in assay [1] stood at 0.8. For the same substance, the “Relative Cell Adhesion MDA-MB-468” value in assay [2] is listed as 1.2. For the same substance, in assay [3], the “Relative Cell Adhesion MCF-10A” value came out at 1.2. Also, the “Relative Cell Adhesion MDA-MB-231” value in assay [4] amounted to 1.5.

With HWYGYTPQNVI [Peptide 20], in assay [1], the “Relative Cell Adhesion MDA-MB-436” value was determined as 1.0. For the same substance, the “Relative Cell Adhesion MDA-MB-468” value in assay [2] is listed as 1.2. Moreover, in assay [3], the “Relative Cell Adhesion MCF-10A” value is reported as 1.2. Besides, the “Relative Cell Adhesion MDA-MB-231” value in assay [4] worked out at 1.5.

In the case of “Peptide 2: scrambled negative control sequence WQTNYIHPYVYG”, the “Relative Cell Adhesion MDA-MB-436” value in assay [1] is reported as 1.1. The “Relative Cell Adhesion MDA-MB-468” value in assay [2] turned out to be 1.1. Besides, the “Relative Cell Adhesion MCF-10A” value in assay [3] came out at 1.0. For the same substance, in assay [4], the “Relative Cell Adhesion MDA-MB-231” value is 1.2.

“WXEAAYQRFL [Peptide 5, positive control, peptide 18 from a previous study, WXEAAYQRFL, reference compound]”: in assay [1], the “Relative Cell Adhesion MDA-MB-436” value was determined as 1.8. In assay [2], the “Relative Cell Adhesion MDA-MB-468” value is listed as 1.3. The “Relative Cell Adhesion MCF-10A” value in assay [3] came out at 1.7. In assay [4], the “Relative Cell Adhesion MDA-MB-231” value is 1.7.

For the substance WYGYTPQNVI [Peptide 21], the “Relative Cell Adhesion MDA-MB-436” value in assay [1] is reported as 1.0. In assay [2], the “Relative Cell Adhesion MDA-MB-468” value amounted to 1.4. In addition, the “Relative Cell Adhesion MCF-10A” value in assay [3] is reported as 1.2. Further, the “Relative Cell Adhesion MDA-MB-231” value in assay [4] was determined as 1.9.

For the substance YAWYGYTPQNVI [Peptide 7], in assay [1], the “Relative Cell Adhesion MDA-MB-436” value was found to be 1.0. Also, in assay [2], the “Relative Cell Adhesion MDA-MB-468” value came to 1.1. Also, the “Relative Cell Adhesion MCF-10A” value in assay [3] stood at 1.0. Besides, in assay [4], the “Relative Cell Adhesion MDA-MB-231” value was 1.1.

As for YGPWYNHYITQV [Peptide 3], in assay [1], the “Relative Cell Adhesion MDA-MB-436” value turned out to be 1.1. In assay [2], the “Relative Cell Adhesion MDA-MB-468” value is listed as 1.0. For the same substance, the “Relative Cell Adhesion MCF-10A” value in assay [3] was 1.0. Also, the “Relative Cell Adhesion MDA-MB-231” value in assay [4] came out at 1.1.

Consider YHAYGYTPQNVI [Peptide 8], for which the “Relative Cell Adhesion MDA-MB-436” value in assay [1] turned out to be 0.9. The “Relative Cell Adhesion MDA-MB-468” value in assay [2] worked out at 0.8. Also, the “Relative Cell Adhesion MCF-10A” value in assay [3] turned out to be 0.9. The “Relative Cell Adhesion MDA-MB-231” value in assay [4] is 1.0.

Take YHWAGYTPQNVI [Peptide 9]: in assay [1], the “Relative Cell Adhesion MDA-MB-436” value stood at 1.2. Also, the “Relative Cell Adhesion MDA-MB-468” value in assay [2] was found to be 1.3. For the same substance, the “Relative Cell Adhesion MCF-10A” value in assay [3] stood at 1.0. Moreover, the “Relative Cell Adhesion MDA-MB-231” value in assay [4] amounted to 1.4.

With YHWFGYTPQNVI [Peptide 29], in assay [1], the “Relative Cell Adhesion MDA-MB-436” value is reported as 1.1. The “Relative Cell Adhesion MDA-MB-468” value in assay [2] was 1.2. Moreover, the “Relative Cell Adhesion MCF-10A” value in assay [3] worked out at 1.1. Also, the “Relative Cell Adhesion MDA-MB-231” value in assay [4] turned out to be 1.7.

Consider YHWYAYTPQNVI [Peptide 10], for which, in assay [1], the “Relative Cell Adhesion MDA-MB-436” value was 1.2. Also, the “Relative Cell Adhesion MDA-MB-468” value in assay [2] was determined as 1.3. In assay [3], the “Relative Cell Adhesion MCF-10A” value is listed as 1.1. The “Relative Cell Adhesion MDA-MB-231” value in assay [4] is on record as 1.5.

In the case of YHWYGATPQNVI [Peptide 11], the “Relative Cell Adhesion MDA-MB-436” value in assay [1] amounted to 1.0. The “Relative Cell Adhesion MDA-MB-468” value in assay [2] is 1.2. Moreover, the “Relative Cell Adhesion MCF-10A” value in assay [3] was 1.0. For the same substance, the “Relative Cell Adhesion MDA-MB-231” value in assay [4] worked out at 1.3.

As to YHWYGFTPQNVI [Peptide 30], the “Relative Cell Adhesion MDA-MB-436” value in assay [1] is listed as 0.9. In addition, the “Relative Cell Adhesion MDA-MB-468” value in assay [2] came to 1.3. For the same substance, in assay [3], the “Relative Cell Adhesion MCF-10A” value is recorded as 1.0. In assay [4], the “Relative Cell Adhesion MDA-MB-231” value was 1.5.

In the case of YHWYGYAPQNVI [Peptide 12], in assay [1], the “Relative Cell Adhesion MDA-MB-436” value amounted to 1.0. Moreover, the “Relative Cell Adhesion MDA-MB-468” value in assay [2] is listed as 1.0. The “Relative Cell Adhesion MCF-10A” value in assay [3] was found to be 1.1. Also, the “Relative Cell Adhesion MDA-MB-231” value in assay [4] worked out at 1.3.

Take YHWYGYTAQNVI [Peptide 13]: the “Relative Cell Adhesion MDA-MB-436” value in assay [1] stood at 1.1. Besides, the “Relative Cell Adhesion MDA-MB-468” value in assay [2] came to 1.3. In assay [3], the “Relative Cell Adhesion MCF-10A” value is listed as 1.1. In addition, the “Relative Cell Adhesion MDA-MB-231” value in assay [4] was found to be 1.5.

As to YHWYGYTPANVI [Peptide 14], the “Relative Cell Adhesion MDA-MB-436” value in assay [1] amounted to 1.2. For the same substance, in assay [2], the “Relative Cell Adhesion MDA-MB-468” value is 1.4. Besides, the “Relative Cell Adhesion MCF-10A” value in assay [3] was determined as 1.2. The “Relative Cell Adhesion MDA-MB-231” value in assay [4] came to 1.7.

Consider YHWYGYTPQAVI [Peptide 15], for which the “Relative Cell Adhesion MDA-MB-436” value in assay [1] stood at 0.9. Also, the “Relative Cell Adhesion MDA-MB-468” value in assay [2] came to 1.2. Also, the “Relative Cell Adhesion MCF-10A” value in assay [3] is reported as 1.1. In addition, the “Relative Cell Adhesion MDA-MB-231” value in assay [4] was 1.6.

YHWYGYTPQN [Peptide 19]: the “Relative Cell Adhesion MDA-MB-436” value in assay [1] is listed as 1.1. The “Relative Cell Adhesion MDA-MB-468” value in assay [2] worked out at 1.3. Moreover, the “Relative Cell Adhesion MCF-10A” value in assay [3] amounted to 1.1. The “Relative Cell Adhesion MDA-MB-231” value in assay [4] was 2.0.

In the case of YHWYGYTPQNAI [Peptide 16], the “Relative Cell Adhesion MDA-MB-436” value in assay [1] came out at 1.0. In assay [2], the “Relative Cell Adhesion MDA-MB-468” value was 1.1. Also, in assay [3], the “Relative Cell Adhesion MCF-10A” value worked out at 1.2. Moreover, the “Relative Cell Adhesion MDA-MB-231” value in assay [4] was determined as 1.4.

For the substance YHWYGYTPQNV [Peptide 18], the “Relative Cell Adhesion MDA-MB-436” value in assay [1] amounted to 1.3. Besides, in assay [2], the “Relative Cell Adhesion MDA-MB-468” value is on record as 1.4. In addition, in assay [3], the “Relative Cell Adhesion MCF-10A” value is on record as 1.2. Also, the “Relative Cell Adhesion MDA-MB-231” value in assay [4] stood at 1.9.

With YHWYGYTPQNVA [Peptide 17], the “Relative Cell Adhesion MDA-MB-436” value in assay [1] stood at 1.2. The “Relative Cell Adhesion MDA-MB-468” value in assay [2] was 1.4. For the same substance, in assay [3], the “Relative Cell Adhesion MCF-10A” value was determined as 1.2. Besides, the “Relative Cell Adhesion MDA-MB-231” value in assay [4] stood at 1.6.

With YKWYGYTPQNVI [Peptide 24], in assay [1], the “Relative Cell Adhesion MDA-MB-436” value is on record as 1.0. In addition, the “Relative Cell Adhesion MDA-MB-468” value in assay [2] stood at 1.1. The “Relative Cell Adhesion MCF-10A” value in assay [3] is listed as 1.0. In addition, in assay [4], the “Relative Cell Adhesion MDA-MB-231” value is reported as 1.4.

Regarding YRWYGYTPQNVI [Peptide 25], the “Relative Cell Adhesion MDA-MB-436” value in assay [1] was 1.0. Further, the “Relative Cell Adhesion MDA-MB-468” value in assay [2] was 1.4. Besides, in assay [3], the “Relative Cell Adhesion MCF-10A” value was found to be 1.2. Also, the “Relative Cell Adhesion MDA-MB-231” value in assay [4] came to 1.9.
